# From patent publication US6395737B1, “Malonic acid derivatives, processes for their preparation, for their use and pharmaceutical compositions containing them” (Aventis Pharma Deutschland GmbH, priority 1999, dated 2002)
# Like-named read-outs stand apart in the source and are kept apart here.
# How the values were obtained:
# [1] = target: T1, factor Xa (Homo sapiens, UniProt P00742); experiment: In vitro Factor Xa assay (Test 1a), chromogenic substrate S-2765; format: biochemical; set-up: purchased Enzyme Research Laboratories, Inc; South Bend, Ind; details: Factor Xa inhibitory activity; Ki from IC50 corrected for substrate competition; 0.5 nM enzyme, 140 μM S-2765, 25° C.
# T1 sequence (P00742 235-488 limits assumed): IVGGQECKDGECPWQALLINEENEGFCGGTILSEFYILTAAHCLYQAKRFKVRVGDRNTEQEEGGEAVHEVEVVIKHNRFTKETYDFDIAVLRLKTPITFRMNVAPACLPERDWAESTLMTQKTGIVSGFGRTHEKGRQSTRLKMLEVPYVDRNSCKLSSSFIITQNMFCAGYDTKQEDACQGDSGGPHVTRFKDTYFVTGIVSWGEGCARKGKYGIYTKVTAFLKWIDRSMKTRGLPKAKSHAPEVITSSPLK
# T1 sequence (P00742 41-179 partner limits assumed): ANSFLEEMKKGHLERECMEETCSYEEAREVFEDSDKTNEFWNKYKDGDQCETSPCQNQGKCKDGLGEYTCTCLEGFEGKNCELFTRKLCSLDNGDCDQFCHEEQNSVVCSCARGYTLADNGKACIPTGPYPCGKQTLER
# Description: The ability of a compound of formula I to inhibit factor Xa, thrombin, plasmin, elastase and trypsin may be assessed by determining the concentration of compound of formula I that inhibits enzyme activity by 50% (IC50). Purified enzymes are used in chromogenic assays. To determine the inhibition constant, the IC50 value is corrected for competition with substrate using the formula:
# Ki=IC50×(1/{1+((substrate concentration)/substrate Km)})
# where Km is the Michaelis-Menten-constant (Y.-C. Chen and W.H. Prusoff, Biochem. Pharmacol. 22: […] (1973), which is incorporated herein by reference).
# TBS-PEG buffer (50 mM Tris-Cl, pH 7.8, 200 mM NaCl, 0.05% (w/v) PEG-8000, 0.02% (w/v) NaN3) is used for this assay. The IC50 is determined by combining in appropriate wells of a Costar half-area microtiter plate 25 μl human factor Xa (Enzyme Research Laboratories, Inc.; South Bend, Ind.) in TBS-PEG; 40 μl 10% (v/v) DMSO in TBS-PEG (uninhibited control) or various concentrations of the compound to be tested diluted in 10% (v/v) DMSO in TBS-PEG; and substrate S-2765 (N-benzyloxycarbonyl-D-Arg-Gly-L-Arg-p-nitroanilide; Kabi Pharmacia, Inc.; Franklin Ohio) in TBS-PEG.
# The assays are performed by pre-incubating the compound of formula I plus enzyme for 10 min, then the assay is initiated by adding substrate to obtain a final volume of 100 μl. The initial velocity of chromogenic substrate hydrolysis is measured by the change in absorbance at 405 nm using a Bio-tek Instruments kinetic plate reader (Ceres UV900HDi) at 25° C. during the linear portion of the time course (usually 1.5 min after addition of substrate). The concentration of inhibitor that causes a 50% decrease in the rate of substrate hydrolysis is predicted by linear regression after plotting the relative rates of hydrolysis (compared to the uninhibited control) versus the log of the compound of formula I concentration. The enzyme concentration is 0.5 nM and substrate concentration is 140 μM.
# [2] = target: T1, factor Xa; details: cited from earlier work
# [3] = system: thrombin and factor Xa; details: rate of inactivation, thrombin relative to factor Xa; cited from earlier work
Molecule,melting point,Ki [1] [nM],further results
CC(C)(C)OC(=O)N1CCN(CCNC(=O)[C@@H](NC(=O)C(Cc2ccc(C(=N)N)cc2)C(=O)NCc2ccccc2)C2CCCCC2)CC1.O=C(O)C(F)(F)F (stereo partly drawn),125 to 128 °C,,
N=C(N)c1ccc(CC(C(=O)NCc2ccccc2)C(=O)N[C@H](C(=O)NCCN2CCNCC2)C2CCCCC2)cc1.O=C(O)C(F)(F)F (stereo partly drawn),196 °C (dec.),,
"CN(C)C(=O)C(Cc1ccc(C(=N)N)cc1)C(=O)N[C@H](C(=O)NCC1CCC(C(=N)N)CC1)C1CCCCC1 (stereo partly drawn) [Example 116, 2-(4-Carbamimidoyl-benzyl)-N-{(S)-[(4-carbamimidoyl-cyclohexylmethyl)-carbamoyl]-cyclohexyl-methyl}-N′,N′-dimethyl-malonamide]",,2,
"CN(C)C(=N)c1ccc(CC(C(=O)NC(C(=O)NCC2CCC(C(=N)N(C)C)CC2)C2CCCCC2)C(=O)N(C)C)cc1 [Example 120, N-(S)-(Cyclohexyl-{[4-(N,N-dimethyl-carbamimidoyl)-cyclohexylmethyl]-carbamoyl}-methyl)-2-[4-(N,N-dimethyl-carbamimidoyl)-benzyl]-N′,N′-dimethyl-malonamide]",,6,
"TAP: tick anticoagulant peptide, isolated from the tick Ornithodoros moubata, contains 60 amino acids; inhibitor of factor Xa (YNRLCIKPRDWIDECDSNEGGERAYFRNGKGGCDSFWICPEDHTGADYYSSYRDCFNACI; UniProt P17726 1-60, looked up)",,,Ki [2]: ~0.5 nM
heparin,,,thrombin inactivated faster than factor Xa [3]: approximately 100 times
